# From patent publication US12448394B2, “Heterocyclic pyrazole derivatives as type III receptor tyrosine kinase inhibitors” (DEVELOPMENT CENTER FOR BIOTECHNOLOGY, priority 2019, dated 2025)
# Columns and labels:
# [1] = test system: Molm-14 human acute myeloid leukemia cell with FLT3-ITD mutation; experiment: Molm-14 cell proliferation assay (CellTiter 96); format: cell-based; conditions: Homo sapiens; Molm-14 cells, 72 hours treatment, CellTiter96; read-out: anti-proliferation activity Molm-14 (FLT3-ITD), IC50 ranking
# Method in brief: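 Molm-14 (FLT3-ITD AML) cells in RPMI 1640 with 10% heat-inactivated FBS were seeded at 25000 cells/well, incubated overnight at 37° C, 5% CO2, then treated with increasing compound concentrations for 72 hours. Viability was read as absorbance at 490 nm after 2˜4 hours with CellTiter96 AQueous One reagent.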
# [2] = test system: phosphorylation of FLT3 and its down-stream effector STAT5; experiment: Western blotting of p-FLT3 and p-STAT5 in MV4-11 cells; format: cell-based; conditions: Homo sapiens; at 30 nM treatment, 3 hours, FLT3-ITD positive MV4-11 leukemia cells; read-out: inhibition activity against phosphorylation of FLT3 and its down-stream effector STAT5
# Method in brief: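 MV4-11 cells held overnight in IMDM with 0.1% FBS, then 3 million cells treated with compound for 3 h. Whole lysates immunoblotted for p-FLT3 (Tyr-591), p-STAT5 (Tyr-694) and actin. Band intensities at 30 nM compared to DMSO control; % inhibition = (1 − relative intensity) × 100.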
# FLT3 kinase = target: T1, FLT3 kinase (Homo sapiens, UniProt P36888); experiment: FLT3 kinase assay (AlphaScreen); format: biochemical; conditions: read-out: Ranking of IC50 values, FLT3
# T1 construct: purchased SignalChem
# T1 sequence (P36888 27-993): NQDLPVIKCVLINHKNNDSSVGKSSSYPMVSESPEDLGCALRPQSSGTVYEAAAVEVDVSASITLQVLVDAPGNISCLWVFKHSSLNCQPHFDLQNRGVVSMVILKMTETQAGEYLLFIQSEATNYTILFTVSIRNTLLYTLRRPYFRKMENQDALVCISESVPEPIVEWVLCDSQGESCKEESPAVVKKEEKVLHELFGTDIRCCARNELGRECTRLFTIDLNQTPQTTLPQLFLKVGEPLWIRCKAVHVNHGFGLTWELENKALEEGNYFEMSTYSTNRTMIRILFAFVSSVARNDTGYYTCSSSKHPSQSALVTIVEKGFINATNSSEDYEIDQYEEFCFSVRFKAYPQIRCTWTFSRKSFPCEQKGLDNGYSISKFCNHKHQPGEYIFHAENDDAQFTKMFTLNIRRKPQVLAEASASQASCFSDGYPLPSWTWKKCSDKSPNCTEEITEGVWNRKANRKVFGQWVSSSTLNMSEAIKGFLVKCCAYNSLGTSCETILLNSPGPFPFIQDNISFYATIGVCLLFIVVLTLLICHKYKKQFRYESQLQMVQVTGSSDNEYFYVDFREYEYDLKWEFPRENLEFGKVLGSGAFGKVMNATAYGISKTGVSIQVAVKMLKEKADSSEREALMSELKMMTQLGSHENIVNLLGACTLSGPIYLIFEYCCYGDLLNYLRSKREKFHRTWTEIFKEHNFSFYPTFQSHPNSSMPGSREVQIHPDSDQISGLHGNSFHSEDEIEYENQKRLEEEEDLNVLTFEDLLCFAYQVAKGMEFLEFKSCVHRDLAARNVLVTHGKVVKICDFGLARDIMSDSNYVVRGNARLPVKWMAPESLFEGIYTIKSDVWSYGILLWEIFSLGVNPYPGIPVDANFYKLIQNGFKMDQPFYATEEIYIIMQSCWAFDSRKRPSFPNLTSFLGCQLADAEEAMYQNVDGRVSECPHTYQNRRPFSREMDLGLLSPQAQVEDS
# Method in brief: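 AlphaScreen detection of biotin-poly(Glu4:Tyr1) phosphorylation by 1.5 ng recombinant FLT3 (10 μM ATP, pH 7.0 MOPS, 10 mM MgCl2; 30 °C, 30 min, EDTA quench). IC50 values derived from serially diluted compound tested in duplicate.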
Compound,IC50 [1] [nM],inhibition at 0.03 µM [2] [%],IC50 (FLT3 kinase) [nM]
"COc1ccc(-c2cc3c(s2)Cc2c(-c4ccc5[nH]ncc5c4)n[nH]c2-3)cn1 [Compound 1, 3-(1H-indazol-5-yl)-6-(6-methoxypyridin-3-yl)-1,4-dihydrothieno[2′,3′:4,5] cyclopenta[1,2-c]pyrazole]",30 to 100,> 50,
"COc1ccc(-c2cc3c(s2)Cc2c(-c4ccc5cn[nH]c5c4)n[nH]c2-3)cn1 [Compound 2, 3-(1H-indazol-6-yl)-6-(6-methoxypyridin-3-yl)-1,4-dihydrothieno[2′,3′:4,5] cyclopenta[1,2-c]pyrazole]",30 to 100,> 50,
"Nc1ccc(-c2cc3c(s2)Cc2c(-c4ccc5cn[nH]c5c4)n[nH]c2-3)cn1 [Compound 3, 5-(3-(1H-indazol-6-yl)-1,4-dihydrothieno[2′,3′:4,5]cyclopenta[1,2-c]pyrazol-6-yl)pyridin-2-amine]",< 30,> 50,
"COc1ccc(-c2cc3c(s2)Cc2c(-c4ccc5cnn(C)c5c4)n[nH]c2-3)cn1 [Compound 4, 6-(6-methoxypyridin-3-yl)-3-(1-methyl-1H-indazol-6-yl)-1,4-dihydrothieno [2′,3′:4,5]cyclopenta[1,2-c] pyrazole]",100 to 300,,1 to 10
"Cc1ccc(-c2cc3c(s2)Cc2c(-c4ccc5cn[nH]c5c4)n[nH]c2-3)cn1 [Compound 30, 3-(1H-indazol-6-yl)-6-(6-methylpyridin-3-yl)-1,4-dihydrothieno[2′,3′:4,5] cyclopenta[1,2-c]pyrazole]",30 to 100,> 50,
"Cc1ccc(-c2cc3c(s2)Cc2c(-c4ccc5[nH]ncc5c4)n[nH]c2-3)cn1 [Compound 36, 3-(1H-indazol-5-yl)-6-(6-methylpyridin-3-yl)-1,4-dihydrothieno[2′,3′:4,5] cyclopenta[1,2-c]pyrazole]",30 to 100,> 50,
"Nc1ccc(-c2cc3c(s2)Cc2c(-c4ccc5[nH]ncc5c4)n[nH]c2-3)cn1 [Compound 40, 5-(3-(1H-indazol-5-yl)-1,4-dihydrothieno [2′,3′:4,5]cyclopenta [1,2-c]pyrazol-6-yl) pyridin-2-amine]",< 30,> 50,
"Cn1ncc2ccc(-c3n[nH]c4c3Cc3sc(-c5ccc(CN6CCOC6=O)cc5)cc3-4)cc21 [Compound 62, 3-(4-(3-(1-methyl-1H-indazol-6-yl)-1,4-dihydro-thieno[2′,3′:4,5]cyclopenta [1,2-c]pyrazol-6-yl)benzyl)oxazolidin-2-one]",30 to 100,> 50,
"Cc1n[nH]c2cc(-c3n[nH]c4c3Cc3sc(-c5ccc(CN6CCOCC6)cc5)cc3-4)ccc12 [Compound 81, 4-(4-(3-(3-methyl-1H-indazol-6-yl)-1,4-dihydro-thieno[2′,3′:4,5]cyclopenta [1,2-c]pyrazol-6-yl)benzyl)morpholine]",300 to 1000,,1 to 10
"Cn1ncc2ccc(-c3n[nH]c4c3Cc3sc(-c5ccc(N6CCOCC6)nc5)cc3-4)cc21 [Compound 82, 4-(5-(3-(1-methyl-1H-indazol-6-yl)-1,4-dihydro-thieno[2′,3′:4,5]cyclopenta [1,2-c]pyrazol-6-yl)pyridin-2-yl)morpholine]",300 to 1000,,1 to 10
"CN1CCN(Cc2ccc(-c3cc4c(s3)Cc3c(-c5ccc6cn[nH]c6c5)n[nH]c3-4)cc2)CC1 [Compound 83, 3-(1H-indazol-6-yl)-6-(4-((4-methylpiperazin-1-yl)methyl)phenyl)-1,4-dihydrothieno[2′,3′:4,5] cyclopenta[1,2-c]pyrazole]",< 30,> 50,< 1
"CN1CCN(Cc2ccc(-c3cc4c(s3)Cc3c(-c5ccc6cnn(C)c6c5)n[nH]c3-4)cc2)CC1 [Compound 84, 3-(1-methyl-1H-indazol-6-yl)-6-(4-((4-methylpiperazin-1-yl)methyl)phenyl)-1,4-dihydrothieno [2′,3′:4,5]cyclopenta [1,2-c]pyrazole]",< 30,> 50,< 1
"CN1CCN(c2ccc(-c3cc4c(s3)Cc3c(-c5ccc6cnn(C)c6c5)n[nH]c3-4)cn2)CC1 [Compound 85, 3-(1-methyl-1H-indazol-6-yl)-6-(6-(4-methyl-piperazin-1-yl)pyridin-3-yl)-1,4-dihydrothieno [2′,3′:4,5]cyclopenta [1,2-c]pyrazole]",300 to 1000,,< 1
"Cn1ncc2ccc(-c3n[nH]c4c3Cc3sc(-c5ccnc(Cl)c5)cc3-4)cc21 [Compound 86, 6-(2-chloropyridin-4-yl)-3-(1-methyl-1H-indazol-6-yl)-1,4-dihydrothieno [2′,3′:4,5]cyclopenta [1,2-c]pyrazole]",100 to 300,,1 to 10
"CN1CCN(c2cc(-c3cc4c(s3)Cc3c(-c5ccc6cnn(C)c6c5)n[nH]c3-4)ccn2)CC1 [Compound 87, 3-(1-methyl-1H-indazol-6-yl)-6-(2-(4-methyl-piperazin-1-yl)pyridin-4-yl)-1,4-dihydrothieno [2′,3′:4,5]cyclopenta [1,2-c]pyrazole]",300 to 1000,,< 1
"Cn1ncc2ccc(-c3n[nH]c4c3Cc3sc(-c5ccc(CN6CCOCC6)c(F)c5F)cc3-4)cc21 [Compound 88, 4-(2,3-difluoro-4-(3-(1-methyl-1H-indazol-6-yl)-1,4-dihydrothieno [2′,3′:4,5]cyclopenta [1,2-c]pyrazol-6-yl)benzyl)morpholine]",300 to 1000,,1 to 10
"Cn1nnc2ccc(-c3n[nH]c4c3Cc3sc(-c5ccc(CN6CCOCC6)cc5)cc3-4)cc21 [Compound 89, 4-(4-(3-(1-methyl-1H-benzo[d][1,2,3]triazol-6-yl)-1,4-dihydrothieno [2′,3′:4,5]cyclopenta [1,2-c]pyrazol-6-yl)benzyl)morpholine]",30 to 100,> 50,1 to 10
"Cn1ncc2ccc(-c3n[nH]c4c3Cc3sc(-c5ccc(CN6CCOCC6)cc5OC(F)(F)F)cc3-4)cc21 [Compound 90, 4-(4-(3-(1-methyl-1H-indazol-6-yl)-1,4-dihydro-thieno[2′,3′:4,5]cyclopenta [1,2-c]pyrazol-6-yl)-3-(trifluoromethoxy)benzyl) morpholine]",300 to 1000,,1 to 10
"Cc1cc(CN2CCOCC2)ccc1-c1cc2c(s1)Cc1c(-c3ccc4cnn(C)c4c3)n[nH]c1-2 [Compound 91, 4-(3-methyl-4-(3-(1-methyl-1H-indazol-6-yl)-1,4-dihydrothieno [2′,3′:4,5]cyclopenta [1,2-c]pyrazol-6-yl)benzyl)morpholine]",100 to 300,,1 to 10
"Cn1ncc2ccc(-c3n[nH]c4c3Cc3sc(-c5ccc(N)nc5)cc3-4)cc21 [Compound 92, 5-(3-(1-methyl-1H-indazol-6-yl)-1,4-dihydro-thieno[2′,3′:4,5]cyclopenta [1,2-c]pyrazol-6-yl) pyridin-2-amine]",< 30,> 50,< 1
"CN(C)Cc1ccc(-c2cc3c(s2)Cc2c(-c4ccc5cnn(C)c5c4)n[nH]c2-3)cn1 [Compound 93, N,N-dimethyl-1-(5-(3-(1-methyl-1H-indazol-6-yl)-1,4-dihydrothieno [2′,3′:4,5]cyclopenta [1,2-c]pyrazol-6-yl)pyridin-2-yl)methanamine]",100 to 300,,1 to 10
"Cn1ncc2ccc(-c3n[nH]c4c3Cc3sc(-c5ccc(CN6CCNCC6=O)cc5)cc3-4)cc21 [Compound 101, 1-(4-(3-(1-methyl-1H-indazol-6-yl)-1,4-dihydro-thieno[2′,3′:4,5]cyclopenta [1,2-c]pyrazol-6-yl)benzyl)piperazin-2-one]",< 30,> 50,
